# Measured values as given in patent publication US20040024055A1, “Pharmaceutical composition containing the exract of saururus chinensis baill useful as an anticancer agent and a process for the preparation thereof” (priority 2000, published 2004).
# How the values were obtained:
# BT-20 = assay: MTT analysis, anticancer activity; assay type: cell-based, human; details: 48 hr
# Solubility = assay type: physicochemical
# KATO-III = assay: MTT analysis, anticancer activity; assay type: cell-based, human
# HS-746T = assay: MTT analysis, anticancer activity; assay type: cell-based, human; details: 10 μg/ml sample
# Hep-2 = assay: MTT analysis, anticancer activity; assay type: cell-based, human
# NIH-3T3 = assay: MTT analysis, cytotoxicity against normal cell line; assay type: cell-based, mouse; details: 10 μg/ml sample
# CPAE = assay: as above; assay type: cell-based, bovine; details: 10 μg/ml sample
# [1] = test system: PC-3 prostate cancer cell line; assay: MTT analysis, anticancer activity; assay type: cell-based, human; details: 48 hr
# Protocol: (§1) To be specific, SK-Hep-1 cell, which is liver cancer cell line, was added to 96-well microplate (Falcon, USA) with the concentration of 3×10^5 cells/ml by 100 μl per well. Each extracted and separated substance dissolved in DMSO was added to the well by 100 μl for the final concentration to be from 50 μg/ml to 0.0244 μg/ml, with 200 μl of final volume. Each cell was cultured for 48 hr in a culture medium of 37° C. and 5% CO2. After cultivation, 20 μl of phosphate buffer solution containing 5 mg/ml of MTT (3-[4,5-dimethylthiazol-2-yl]-2,5-diphenyltetrazoliumbromide, Sigma Co.) reagent was added to each well, and then cultured for 4 hr. After taking 100 μl of supernant from each culture medium, 100 μl of 0.04N hydrochloric acid-isopropanol was added. After letting alone overnight, absorbance was measured at 560 nm using automatic Eliza detector (Molecular Divices Corp., USA). Anticancer activity of each extracted and separated substance was calculated from the absorbance value by Equation 1 and was expressed in terms of cell.
# (§2) Average Existence Rate(%)=(Absorbance of Treated Group)/(Absorbance of Control Group)×100
# LoVo = assay: MTT analysis, anticancer activity; assay type: cell-based, human; details: 10 μg/ml sample
# BT-549 = assay: MTT analysis, anticancer activity; assay type: cell-based, human; details: 10 μg/ml sample
# T98G = assay: MTT analysis, anticancer activity; assay type: cell-based, human; details: 48 hr
# [2] = test system: DU-145 prostate cancer cell line; assay: MTT analysis, anticancer activity; assay type: cell-based, human; details: 48 hr
# Protocol: as §1, §2
# HeLa = assay: MTT analysis, anticancer activity; assay type: cell-based, human; details: 48 hr
# [3] = test system: SK-Hep-1 liver cancer cell line; assay: MTT analysis, anticancer activity; assay type: cell-based, human; details: for IC50 SK-Hep-1: 48 hr
# Protocol: as §1, §2
# HT1080 = assay: MTT analysis, anticancer activity; assay type: cell-based, human; details: 48 hr
# SK-MEL-28 = assay: MTT analysis, anticancer activity; assay type: cell-based, human; details: 48 hr
# SK-BR-3 = assay: MTT analysis, anticancer activity; assay type: cell-based, human; details: 48 hr
# NCI-H69 = assay: MTT analysis, anticancer activity; assay type: cell-based, human; details: 10 μg/ml sample
# A431 = assay: MTT analysis, anticancer activity; assay type: cell-based, human; details: 48 hr
# HT-29 = assay: MTT analysis, anticancer activity; assay type: cell-based, human; details: 10 μg/ml sample
# HS683 = assay: MTT analysis, anticancer activity; assay type: cell-based, human; details: 48 hr
# SK-OV-3 = assay: MTT analysis, anticancer activity; assay type: cell-based, human; details: 10 μg/ml sample
# MCF-7 = assay: MTT analysis, anticancer activity; assay type: cell-based, human
# HS-578T = assay: MTT analysis, anticancer activity; assay type: cell-based, human; details: 10 μg/ml sample
# SK-N-SH = assay: MTT analysis, anticancer activity; assay type: cell-based, human; details: 48 hr
# T-47D = assay: MTT analysis, anticancer activity; assay type: cell-based, human; details: 48 hr
# ME-180 = assay: MTT analysis, anticancer activity; assay type: cell-based, human; details: 10 μg/ml sample
# HS27 = assay: MTT analysis, cytotoxicity against normal cell line; assay type: cell-based, human; details: 10 μg/ml sample
# 293 = assay: as above; assay type: cell-based, human; details: 10 μg/ml sample
# CHO = assay: as above; assay type: cell-based, Chinese hamster; details: 10 μg/ml sample
# 3T3-L1 = assay: as above; assay type: cell-based, mouse; details: 10 μg/ml sample
SMILES,IC50 BT-20 (BT-20),"Solubility in methanol, ethanol, ethyl acetate, chloroform and dimethylsulfoxide (DMSO) (Solubility)","Solubility in water, acetone, ether and hexane (Solubility)","Existence rate class, HS-746T (in IC50 table) (HS-746T)","Existence rate class, NIH-3T3 (in IC50 table) (NIH-3T3)","Existence rate class, CPAE (in IC50 table) (CPAE)",IC50 PC-3 [1],"Existence rate class, LoVo (in IC50 table) (LoVo)","Existence rate class, BT-549 (in IC50 table) (BT-549)",IC50 T98G (T98G),IC50 DU-145 [2],IC50 HeLa (HeLa),IC50 SK-Hep-1 [3],IC50 HT1080 (HT1080),IC50 SK-MEL-28 (SK-MEL-28),IC50 SK-BR-3 (SK-BR-3),"Existence rate class, NCI-H69 (in IC50 table) (NCI-H69)",IC50 A431 (A431),"Existence rate class, HT-29 (in IC50 table) (HT-29)",IC50 HS683 (HS683),other results
"COc1ccc(C(O)C(C)Oc2ccc(C3OC(c4ccc(OC(C)[C@@H](O)c5ccc(OC)c(OC)c5)c(OC)c4)C(C)C3C)cc2OC)cc1OC (single isomer, unassigned) [HNP-98701A, epi-manassantin A]",0.0996 mg/L,highly soluble,insoluble,* (Existence rate larger than 60% for 10 μg/ml sample),N.E. (Not effective; existence rate larger than 90% for 10 μg/ml sample),* (Existence rate larger than 60% for 10 μg/ml sample),0.1249 mg/L,* (Existence rate larger than 60% for 10 μg/ml sample),*^a (Existence rate larger than 60% for 10 μg/ml sample),0.2470 mg/L,0.0537 mg/L,0.4233 mg/L,0.0795 mg/L,0.4267 mg/L,0.2544 mg/L,0.1698 mg/L,* (Existence rate larger than 60% for 10 μg/ml sample),0.4903 mg/L,* (Existence rate larger than 60% for 10 μg/ml sample),0.5561 mg/L,"IC50 (KATO-III; Homo sapiens, KATO III, 48 h, read-out: IC50 KATO-III, MTT, 48 hr): 0.617 mg/L; IC50 (Hep-2; Homo sapiens, HEp-2, 48 h, read-out: IC50 Hep-2, MTT, 48 hr): 0.0406 mg/L; Existence rate class, SK-OV-3 (in IC50 table) (SK-OV-3): N.E. (Not effective; existence rate larger than 90% for 10 μg/ml sample); IC50 (MCF-7; Homo sapiens, MCF7, 48 h, read-out: IC50 MCF-7): > 10 mg/L; Existence rate class, HS-578T (in IC50 table) (HS-578T): N.E.^b (Not effective; existence rate larger than 90% for 10 μg/ml sample); IC50 SK-N-SH (SK-N-SH): 1.2849 mg/L; IC50 T-47D (T-47D): 0.0400 mg/L; Existence rate class, ME-180 (in IC50 table) (ME-180): * (Existence rate larger than 60% for 10 μg/ml sample); Existence rate class, HS27 (in IC50 table) (HS27): N.E. (Not effective; existence rate larger than 90% for 10 μg/ml sample); Existence rate class, 293 (in IC50 table) 293: *^a (Existence rate larger than 60% for 10 μg/ml sample); Existence rate class, CHO (in IC50 table) (CHO): * (Existence rate larger than 60% for 10 μg/ml sample); Existence rate class, 3T3-L1 (in IC50 table) (3T3-L1): N.E.^b (Not effective; existence rate larger than 90% for 10 μg/ml sample)"
"COc1ccc(C(O)C(C)Oc2ccc(C3OC(c4ccc(OC(C)[C@@H](O)c5ccc(OC)c(OC)c5)c(OC)c4)C(C)C3C)cc2OC)cc1OC (single isomer, unassigned) [HNP-98701B]",0.0292 mg/L,highly soluble,insoluble,* (Existence rate larger than 60% for 10 μg/ml sample),N.E. (Not effective; existence rate larger than 90% for 10 μg/ml sample),* (Existence rate larger than 60% for 10 μg/ml sample),0.0695 mg/L,* (Existence rate larger than 60% for 10 μg/ml sample),* (Existence rate larger than 60% for 10 μg/ml sample),0.1003 mg/L,0.0184 mg/L,0.1680 mg/L,0.0388 mg/L,0.1882 mg/L,0.1123 mg/L,0.0866 mg/L,* (Existence rate larger than 60% for 10 μg/ml sample),0.2344 mg/L,* (Existence rate larger than 60% for 10 μg/ml sample),0.2325 mg/L,"IC50 KATO-III (KATO-III; MTT, 48 hr): 0.4477 mg/L; IC50 Hep-2 (Hep-2; MTT, 48 hr): 0.0329 mg/L; Existence rate class, SK-OV-3 (in IC50 table) (SK-OV-3): N.E. (Not effective; existence rate larger than 90% for 10 μg/ml sample); IC50 MCF-7 (MCF-7; MTT, 48 hr): >10 mg/L; Existence rate class, HS-578T (in IC50 table) (HS-578T): N.E. (Not effective; existence rate larger than 90% for 10 μg/ml sample); IC50 SK-N-SH (SK-N-SH): 0.4314 mg/L; IC50 T-47D (T-47D): 0.0167 mg/L; Existence rate class, ME-180 (in IC50 table) (ME-180): * (Existence rate larger than 60% for 10 μg/ml sample); Existence rate class, HS27 (in IC50 table) (HS27): N.E. (Not effective; existence rate larger than 90% for 10 μg/ml sample); Existence rate class, 293 (in IC50 table) 293: * (Existence rate larger than 60% for 10 μg/ml sample); Existence rate class, CHO (in IC50 table) (CHO): * (Existence rate larger than 60% for 10 μg/ml sample); Existence rate class, 3T3-L1 (in IC50 table) (3T3-L1): N.E. (Not effective; existence rate larger than 90% for 10 μg/ml sample)"
"O=c1[nH]cc(F)c(=O)[nH]1 [5-FU, 5-fluorouracil]",,,,,,,,,,,,,,,,,,,,,"IC50 ([3]; Homo sapiens, SK-HEP1, 48 hr): > 50 mg/L"
